Measurements from PubChem BioAssay AID2060884 (Molecular Pharmacology Branch, DTP, NCI, 2025).

System: NCI-H929 complex spheroids, viability % test/control
Test: Anticancer human tumor NCI-H929 cell line growth inhibition [RAS];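 further: compound exposure lasted seven days before viability was read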;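 on viability, T/C: 100% = DMSO vehicle control viability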
Settings: for IC50: curve of first compound; for viability, T/C: stronger effect = lower value
Outline: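 Agents were tested in combination matrices in half-log decrements from a top concentration at or near clinical Cmax (10 microM if undetermined). Targets were multi-cell spheroids of tumour lines plus HUVEC and MSC stromal cells.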

[1] = second compound 0.0316 µM, first compound 0.0316 µM
[2] = second compound 0.0316 µM, first compound 0.1 µM
[3] = second compound 0.0316 µM, first compound 0.316 µM
[4] = second compound 0.0316 µM, first compound 1 µM
[5] = second compound 0.0316 µM, first compound 3.16 µM
[6] = second compound 0.0316 µM, first compound 10 µM
[7] = second compound 0.1 µM, first compound 0.0316 µM
[8] = second compound 0.1 µM, first compound 0.1 µM
[9] = second compound 0.1 µM, first compound 0.316 µM
[10] = second compound 0.1 µM, first compound 1 µM
[11] = second compound 0.1 µM, first compound 3.16 µM
[12] = second compound 0.1 µM, first compound 10 µM
[13] = second compound 0.316 µM, first compound 0.0316 µM
[14] = second compound 0.316 µM, first compound 0.1 µM
[15] = second compound 0.316 µM, first compound 0.316 µM
[16] = second compound 0.316 µM, first compound 1 µM
[17] = second compound 0.316 µM, first compound 3.16 µM
[18] = second compound 0.316 µM, first compound 10 µM
[19] = second compound 1 µM, first compound 0.0316 µM
[20] = second compound 1 µM, first compound 0.1 µM
[21] = second compound 1 µM, first compound 0.316 µM
[22] = second compound 1 µM, first compound 1 µM
[23] = second compound 1 µM, first compound 3.16 µM
[24] = second compound 1 µM, first compound 10 µM
[25] = second compound 3.16 µM, first compound 0.0316 µM
[26] = second compound 3.16 µM, first compound 0.1 µM
[27] = second compound 3.16 µM, first compound 0.316 µM
[28] = second compound 3.16 µM, first compound 1 µM
[29] = second compound 3.16 µM, first compound 3.16 µM
[30] = second compound 3.16 µM, first compound 10 µM
[31] = second compound 10 µM, first compound 0.0316 µM
[32] = second compound 10 µM, first compound 0.1 µM
[33] = second compound 10 µM, first compound 0.316 µM
[34] = second compound 10 µM, first compound 1 µM
[35] = second compound 10 µM, first compound 3.16 µM
[36] = second compound 10 µM, first compound 10 µM

## CC1(O)CCCC1n1c(=O)c(C(F)F)cc2cnc(NC3CCN(S(C)(=O)=O)CC3)nc21 (centres undefined) + C#Cc1c(F)ccc2cc(O)cc(-c3ncc4c(N5CC6CCC(C5)N6)nc(OCC56CCCN5CC(F)C6)nc4c3F)c12
Second compound 0.0316 µM
  IC50: 190 nM
Second compound 0.1 µM
  IC50: 191 nM
Second compound 0.316 µM
  IC50: 194 nM
Second compound 1 µM
  IC50: 193 nM
Second compound 3.16 µM
  IC50: 183 nM
Second compound 10 µM
  IC50: 105 nM
[1]
  viability, T/C: 112%
[2]
  viability, T/C: 106%
[3]
  viability, T/C: 5.76%
[4]
  viability, T/C: 10.1%
[5]
  viability, T/C: 3.99%
[6]
  viability, T/C: 0.89%
[7]
  viability, T/C: 104%
[8]
  viability, T/C: 108%
[9]
  viability, T/C: 5.96%
[10]
  viability, T/C: 11.6%
[11]
  viability, T/C: 3.51%
[12]
  viability, T/C: 0.63%
[13]
  viability, T/C: 105%
[14]
  viability, T/C: 112%
[15]
  viability, T/C: 6.91%
[16]
  viability, T/C: 13.5%
[17]
  viability, T/C: 4.01%
[18]
  viability, T/C: 0.21%
[19]
  viability, T/C: 107%
[20]
  viability, T/C: 109%
[21]
  viability, T/C: 6.21%
[22]
  viability, T/C: 11.2%
[23]
  viability, T/C: 3.72%
[24]
  viability, T/C: 0.45%
[25]
  viability, T/C: 114%
[26]
  viability, T/C: 99%
[27]
  viability, T/C: 6%
[28]
  viability, T/C: 12.5%
[29]
  viability, T/C: 2.73%
[30]
  viability, T/C: 0.21%
[31]
  viability, T/C: 97.9%
[32]
  viability, T/C: 51.8%
[33]
  viability, T/C: 10.6%
[34]
  viability, T/C: 11.6%
[35]
  viability, T/C: 3.3%
[36]
  viability, T/C: 0.45%

## CCC(CC)c1cc(NC2CCC(N)C2)n2nccc2n1 (centres undefined) + C#Cc1c(F)ccc2cc(O)cc(-c3ncc4c(N5CC6CCC(C5)N6)nc(OCC56CCCN5CC(F)C6)nc4c3F)c12
Second compound 0.0316 µM
  IC50: 1790 nM
Second compound 0.1 µM
  IC50: 1800 nM
Second compound 0.316 µM
  IC50: 1790 nM
Second compound 1 µM
  IC50: 1780 nM
Second compound 3.16 µM
  IC50: 1790 nM
Second compound 10 µM
  IC50: 1820 nM
[1]
  viability, T/C: 95.1%
[2]
  viability, T/C: 95.2%
[3]
  viability, T/C: 101%
[4]
  viability, T/C: 109%
[5]
  viability, T/C: 1.07%
[6]
  viability, T/C: 0.31%
[7]
  viability, T/C: 97.2%
[8]
  viability, T/C: 97.7%
[9]
  viability, T/C: 99.7%
[10]
  viability, T/C: 110%
[11]
  viability, T/C: 1.11%
[12]
  viability, T/C: 0.27%
[13]
  viability, T/C: 95.4%
[14]
  viability, T/C: 98.1%
[15]
  viability, T/C: 97.6%
[16]
  viability, T/C: 113%
[17]
  viability, T/C: 0.58%
[18]
  viability, T/C: 0.23%
[19]
  viability, T/C: 93.8%
[20]
  viability, T/C: 95.7%
[21]
  viability, T/C: 99.7%
[22]
  viability, T/C: 111%
[23]
  viability, T/C: 0.22%
[24]
  viability, T/C: 0.66%
[25]
  viability, T/C: 94.1%
[26]
  viability, T/C: 98%
[27]
  viability, T/C: 96.4%
[28]
  viability, T/C: 113%
[29]
  viability, T/C: 1.09%
[30]
  viability, T/C: 0.81%
[31]
  viability, T/C: 102%
[32]
  viability, T/C: 101%
[33]
  viability, T/C: 99.1%
[34]
  viability, T/C: 111%
[35]
  viability, T/C: 0.7%
[36]
  viability, T/C: 0.12%
